Measurements from PubChem BioAssay AID192 (DTP/NCI, 2004).
“And” between values parts separate entries of the source, which are not always exact repeats. Equal values may be shown once. Toxic doses and inconclusive results are not listed. Numbered stars: 1 amine (or outer) side, 2 acyl side, 3 side chain; on linkers, the order of the positions; unused ones are H or OH. Bridge positions count the residues as written; N and C are the ends. Square brackets hold non-standard residues; d marks the D form. Peptide text beside a SMILES is read from it. I, II: the chains in the order shown. Actinocin(1to9) = Cc1c2oc3c(C)ccc(C(=O)[*:2])c3nc-2c(C(=O)[*:1])c(N)c1=O; NMeV = CN[CH](C(=O)O)C(C)C; Sar = CNCC(=O)O

Tested on: BDF1 mice, B16 melanoma ip, median survival T/C
Experiment: NCI In Vivo Anticancer Drug Screen. Data for tumor model B16 Melanoma (intraperitoneal) in B6D2F1 (BDF1) mice
Details: endpoint: median survival time, higher = longer survival
In short: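 Read-out: survival or tumor size, given as treated/control ratio. Controls received vehicle only; animals bore transplantable tumors.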

[1] = dose: 50.0 mg/kg/injection, schedule: Q01DX009 (ip), vehicle: Klucel (hydroxypropylcellulose) (HPC)
[2] = dose: 100.0 mg/kg/injection, schedule: Q01DX009 (ip), vehicle: Klucel (hydroxypropylcellulose) (HPC)
[3] = dose: 200.0 mg/kg/injection, schedule: Q01DX009 (ip), vehicle: Klucel (hydroxypropylcellulose) (HPC)
[4] = dose: 400.0 mg/kg/injection, schedule: Q01DX009 (ip), vehicle: Klucel (hydroxypropylcellulose) (HPC)
[5] = dose: 12.5 mg/kg/injection, schedule: Q01DX009 (ip), vehicle: Klucel (hydroxypropylcellulose) (HPC)
[6] = dose: 25.0 mg/kg/injection, schedule: Q01DX009 (ip), vehicle: Klucel (hydroxypropylcellulose) (HPC)
[7] = dose: 25.0 mg/kg/injection, schedule: Q01DX009 (ip), vehicle: saline with Tween-80
[8] = dose: 50.0 mg/kg/injection, schedule: Q01DX009 (ip), vehicle: saline with Tween-80
[9] = dose: 100.0 mg/kg/injection, schedule: Q01DX009 (ip), vehicle: saline with Tween-80
[10] = dose: 150.0 mg/kg/injection, schedule: Q01DX009 (ip), vehicle: saline with Tween-80

## C=CCCOC(C)=O
[1]
  T/C: 100 % of control
[2]
  T/C: 108 % of control
[3]
  T/C: 108 % of control

## CN(C)CCCN1c2ccccc2CCc2ccc(Cl)cc21
dose: 6.25 mg/kg/injection, schedule: Q01DX009 (ip), vehicle: saline
  T/C: 101 % of control
dose: 12.5 mg/kg/injection, schedule: Q01DX009 (ip), vehicle: saline
  T/C: 108 % of control
dose: 25.0 mg/kg/injection, schedule: Q01DX009 (ip), vehicle: saline
  T/C: 115 % of control
dose: 50.0 mg/kg/injection, schedule: Q01DX009 (ip), vehicle: saline
  T/C: 98 % of control

## C=CCOC(=O)C1CC(C(=O)OCC=C)C(C(=O)OCC=C)C1C(=O)OCC=C (centres undefined)
dose: 50.0 mg/kg/injection, schedule: Q01DX009 (ip), vehicle: other
  T/C: 96 % of control
dose: 100.0 mg/kg/injection, schedule: Q01DX009 (ip), vehicle: other
  T/C: 105 % of control
dose: 200.0 mg/kg/injection, schedule: Q01DX009 (ip), vehicle: other
  T/C: 98 % of control

## O=[N+]([O-])c1cccc(S(=O)(=O)N2CCN(S(=O)(=O)c3cccc([N+](=O)[O-])c3)C2)c1
dose: 100.0 mg/kg/injection, schedule: Q04DX003 (ip), vehicle: Klucel (hydroxypropylcellulose) (HPC)
  T/C: 109 % of control
dose: 200.0 mg/kg/injection, schedule: Q04DX003 (ip), vehicle: Klucel (hydroxypropylcellulose) (HPC)
  T/C: 102 % of control
dose: 400.0 mg/kg/injection, schedule: Q04DX003 (ip), vehicle: Klucel (hydroxypropylcellulose) (HPC)
  T/C: 94 % of control

## O=C(Nc1cc(C(F)(F)F)ccc1Cl)c1ccc(Cl)cc1
[2]
  T/C: 104 % of control
[3]
  T/C: 100 % of control
[4]
  T/C: 103 % of control

## CCC(C)C1NC(=O)C(NC(=O)c2c3nc4c(C(=O)NC5C(=O)NC(C(C)C)C(=O)N6CCCC6C(=O)N(C)CC(=O)N(C)C(C(C)C)C(=O)OC5C)ccc(C)c4oc-3c(C)c(=O)c2N)C(C)OC(=O)C(C(C)C)N(C)C(=O)CN(C)C(=O)C2CCCN2C1=O (centres undefined) (I: TIP[Sar][NMeV] / II: TVP[Sar][NMeV]; ester I:1-I:C, II:1-II:C; linker I:N-II:N via Actinocin(1to9); configuration not given here)
dose: 0.2 mg/kg/injection, schedule: Q01DX001 (ip), vehicle: water
  T/C: 116 % of control
dose: 12.5 micrograms/kg/injection, schedule: Q01DX009 (ip), vehicle: water
  T/C: 117 % of control
dose: 25.0 micrograms/kg/injection, schedule: Q01DX009 (ip), vehicle: water
  T/C: 116 % of control
dose: 75.0 micrograms/kg/injection, schedule: Q04DX003 (ip), vehicle: water
  T/C: 119 % of control

## O=S(=O)(CCCl)c1ccc2ccccc2c1
dose: 6.25 mg/kg/injection, schedule: Q01DX009 (ip), vehicle: Klucel (hydroxypropylcellulose) (HPC)
  T/C: 100 % of control
[5]
  T/C: 104 % of control
[6]
  T/C: 106 % of control
[1]
  T/C: 104 % of control

## NS(=O)(=O)OCCCCCCCOS(N)(=O)=O
[7]
  T/C: 150 % of control
[8]
  T/C: 181 % of control

## NC(=O)Nc1ccccc1
dose: 100.0 mg/kg/injection, schedule: Q01DX009 (ip), vehicle: saline
  T/C: 97 % of control
dose: 200.0 mg/kg/injection, schedule: Q01DX009 (ip), vehicle: saline
  T/C: 100 % of control
dose: 400.0 mg/kg/injection, schedule: Q01DX009 (ip), vehicle: saline
  T/C: 104 % of control

## CCNc1nc(NCC)nc(OC)n1
[8]
  T/C: 117 % of control
dose: 66.0 mg/kg/injection, schedule: Q01DX009 (ip), vehicle: saline with Tween-80
  T/C: 93 % of control
[9]
  T/C: 95 % of control
[10]
  T/C: 93 % of control
dose: 200.0 mg/kg/injection, schedule: Q01DX009 (ip), vehicle: saline with Tween-80
  T/C: 105 % of control

## CCCCCCCCCNC(=O)Nc1cccc(Cl)c1C
[8]
  T/C: 99 % of control
[9]
  T/C: 91 % of control

## O=C(O)c1ccccc1C(=O)O.[C-]#[O+].[C-]#[O+].[C-]#[O+].[C-]#[O+].[Rh].[Rh]
[2]
  T/C: 108 % of control
[3]
  T/C: 100 % of control
[4]
  T/C: 94 % of control

## CCCCCCCCCCCC(c1ccccc1)[N+](C)(C)Cc1ccccc1 (centres undefined)
dose: 0.25 mg/kg/injection, schedule: Q01DX009 (ip), vehicle: saline sonified
  T/C: 94 % of control
dose: 0.5 mg/kg/injection, schedule: Q01DX009 (ip), vehicle: saline sonified
  T/C: 110 % of control
dose: 1.0 mg/kg/injection, schedule: Q01DX009 (ip), vehicle: saline sonified
  T/C: 105 % of control
dose: 2.0 mg/kg/injection, schedule: Q01DX009 (ip), vehicle: saline sonified
  T/C: 102 % of control

## O=NN(CCF)C(=O)N[C@H]1CCCC[C@H]1O
dose: 3.75 mg/kg/injection, schedule: Q01DX001 (ip), vehicle: saline
  T/C: 100 % of control
dose: 7.5 mg/kg/injection, schedule: Q01DX001 (ip), vehicle: saline
  T/C: 105 % of control
dose: 15.0 mg/kg/injection, schedule: Q01DX001 (ip), vehicle: saline
  T/C: 101 % of control
dose: 60.0 mg/kg/injection, schedule: Q01DX001 (ip), vehicle: saline
  T/C: 222 % of control

## CCOc1ccnc(OCC)n1
[7]
  T/C: 96 % of control
[8]
  T/C: 101 % of control
[9]
  T/C: 99 % of control

## C=C(Cl)c1c(C)cc(C)cc1C
[1]
  T/C: 87 % of control

## CC(C)CC(NC(=O)c1ccccc1)C(=O)O (centres undefined)
[9]
  T/C: 97 % of control

## C=CCN1CCCC1=O
dose: 100.0 mg/kg/injection, schedule: Q04DX003 (ip), vehicle: saline
  T/C: 102 % of control
dose: 200.0 mg/kg/injection, schedule: Q04DX003 (ip), vehicle: saline
  T/C: 95 % of control
dose: 400.0 mg/kg/injection, schedule: Q04DX003 (ip), vehicle: saline
  T/C: 100 % of control

## CC(C)Nc1ncnc2[nH]ncc12
dose: 1.0 mg/kg/injection, schedule: Q01DX009 (ip), vehicle: Klucel (hydroxypropylcellulose) (HPC)
  T/C: 96 % of control
dose: 2.0 mg/kg/injection, schedule: Q01DX009 (ip), vehicle: Klucel (hydroxypropylcellulose) (HPC)
  T/C: 105 % of control
dose: 4.0 mg/kg/injection, schedule: Q01DX009 (ip), vehicle: Klucel (hydroxypropylcellulose) (HPC)
  T/C: 94 % of control
dose: 8.0 mg/kg/injection, schedule: Q01DX009 (ip), vehicle: Klucel (hydroxypropylcellulose) (HPC)
  T/C: 102 % of control

## Cc1cccc(C)c1NC(=O)NC(C)C
[2]
  T/C: 87 % of control
[3]
  T/C: 115 % of control
[4]
  T/C: 118 % of control

## OC1CCCC2CCC[N-]C12.OC1CCCC2CCC[N-]C12.[Mn+2] (centres undefined)
[5]
  T/C: 109 % of control
[6]
  T/C: 95 % of control
[1]
  T/C: 105 % of control
[2]
  T/C: 94 % of control
[3]
  T/C: 98 % of control

## CCCCCOc1ccc(C(=O)CC(=O)OCC)cc1
[2]
  T/C: 93 % of control
[3]
  T/C: 106 % of control
[4]
  T/C: 93 % of control

## Nc1nc(N)c(-c2ccc(Cl)c(Cl)c2)c(CP(Cl)(Cl)(Cl)Br)n1
dose: 6.3 mg/kg/injection, schedule: Q01DX009 (ip), vehicle: Klucel (hydroxypropylcellulose) (HPC)
  T/C: 112 % of control
[5]
  T/C: 111 % of control
[6]
  T/C: 115 % of control
[1]
  T/C: 123 % of control

## CCCCCCCCCCCCCCCCCCNC(=O)Nc1cc(C)ccc1C
dose: 25.0 mg/kg/injection, schedule: Q01DX009 (ip), vehicle: gum acacia
  T/C: 100 % of control
dose: 50.0 mg/kg/injection, schedule: Q01DX009 (ip), vehicle: gum acacia
  T/C: 93 % of control
dose: 100.0 mg/kg/injection, schedule: Q01DX009 (ip), vehicle: gum acacia
  T/C: 107 % of control

## C=C1C(=O)OC2CC1CCC1(C)OC1CCC(C)=CCCC2(C)O (centres undefined)
dose: 0.04 mg/kg/injection, schedule: Q01DX009 (ip), vehicle: Klucel (hydroxypropylcellulose) (HPC)
  T/C: 90 % of control
dose: 0.09 mg/kg/injection, schedule: Q01DX009 (ip), vehicle: Klucel (hydroxypropylcellulose) (HPC)
  T/C: 91 % of control
dose: 1.8 mg/kg/injection, schedule: Q01DX009 (ip), vehicle: Klucel (hydroxypropylcellulose) (HPC)
  T/C: 86 % of control and 91 % of control
dose: 7.5 mg/kg/injection, schedule: Q01DX009 (ip), vehicle: Klucel (hydroxypropylcellulose) (HPC)
  T/C: 98 % of control

## COc1cc2c3cc1Oc1c(O)c(OC)cc4c1[C@H](Cc1ccc(cc1)Oc1cc(ccc1O)C[C@H]3N(C)CC2)N(C)CC4
dose: 10.0 mg/kg/injection, schedule: Q01DX009 (ip), vehicle: water
  T/C: 108 % of control
dose: 20.0 mg/kg/injection, schedule: Q01DX009 (ip), vehicle: water
  T/C: 114 % of control
dose: 40.0 mg/kg/injection, schedule: Q01DX009 (ip), vehicle: water
  T/C: 102 % of control and 113 % of control
[8]
  T/C: 118 % of control
dose: 75.0 mg/kg/injection, schedule: Q01DX009 (ip), vehicle: saline with Tween-80
  T/C: 112 % of control
dose: 80.0 mg/kg/injection, schedule: Q01DX009 (ip), vehicle: water
  T/C: 88 % of control and 114 % of control
[9]
  T/C: 118 % of control
[10]
  T/C: 119 % of control
